Test results as given in PubChem BioAssay AID504861 (Broad Institute, 2011).
Activity calls are given as the source filed them.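 How the source made its calls: active means compounds lowering cell viability signal with fitted half-maximal concentration at most ten times their highest tested concentration; inconclusive means flat fit with 30 to 70% signal loss, or poor fit; inactive means the rest.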

What follows are compounds tested on HEK293T viability, CellTiter-Glo ATP luminescence, 48 h (assay: cytotoxicity in HEK293T cells – cell-based, CellTiter-Glo luminescence, cherry-picks, cytotoxicity control for LMP1 NF-kB inhibitor project, dose response (AID 504861)).
For `C#CCN(C[C@@H]1[C@@H](OC(=O)NCc2ccccc2F)[C@@H](OC(=O)NCc2ccccc2F)Cn2c(=O)ccc(=O)n21)S(=O)(=O)c1ccc(C)cc1`, the AC50 was 7.27 µM.
Compound `COc1cc(C=C2CCCC(=Cc3ccc(OCC4CO4)c(OC)c3)C2=O)ccc1OCC1CO1` (stereo not drawn) has an AC50 of 24.3 µM.
Compound `C=CCNC(=S)N/N=C(\C)c1ccccn1` has an AC50 of 2.06 µM.
`CC(C)CC(=NNC(=O)c1ccncc1)c1cc(Cl)ccc1O` gave an AC50 of 3.12 µM.
In the case of `CCOC(=O)c1c(C)[nH]c(C(=O)N/N=C\c2ccccc2O)c1C`, the AC50 is reported as 4.09 µM.
In the case of `O=C(N/N=C/c1cc2c3c(c1O)CCCN3CCC2)c1ccccc1O`, the AC50 is reported as 4.17 µM.
`Oc1ccc2ccccc2c1/C=N/Nc1nnc(-c2ncc[nH]2)c2ccccc12` gave an AC50 of 2.32 µM.
`Cn1nnnc1N=N/C(=N/Nc1ccccc1)c1ccccc1` showed an AC50 of 1.23 µM.
In the case of `Clc1ccc(SCc2cc(N3CCOCC3)nc(-c3ccccn3)n2)cc1`, the AC50 is reported as 14.9 µM.
With `CCCCC(=O)NC(c1ccc(Cl)cc1Cl)c1ccc2cccnc2c1O` (stereo not drawn) the AC50 was 3.16 µM.
`O=C(Nc1nnc(SCc2ccc(F)cc2)s1)c1ccccn1` gave an AC50 of 25.9 µM.
`CC1(C)N=C(N)N=C(N)N1c1ccc(CCCCc2ccccc2)cc1` was tested, and the AC50 was 0.406 µM.
`CCN(CC)c1ccc(/C=N/Nc2nc(C)cc(=O)[nH]2)c(O)c1` showed an AC50 of 1.41 µM.
In the case of `O=C(CCl)N(c1ccc(Cl)cc1)c1c[nH]c2ccccc12`, the AC50 is reported as 1.19 µM.
Compound `CCN(CC)c1ccc(C(NC(=O)C(C)C)c2ccc3cccnc3c2O)cc1` (stereo not drawn) has an AC50 of 4.34 µM.
Compound `CC(=NNC(=S)Nc1cccc(Cl)c1)c1ccccn1` has an AC50 of 0.687 µM.
`Cc1ccc2nc(-c3ccccn3)[nH]c2c1` was tested, and the AC50 was 21.6 µM.
Compound `CC(=NNC(=S)N1CCCC1)c1ccccn1` has an AC50 of 4.56 µM.
With `CC(=NNc1nc2ccccc2s1)c1ncccn1` the AC50 was 13.8 µM.
With `Cc1cc(C)nc(SCc2ccc(C(=O)N/N=C/c3cccc(O)c3O)cc2)n1` the AC50 was 20.3 µM.
For `C=CCn1c(O)c(N=NC(=S)Nc2ccccc2F)c2cc(S(=O)(=O)N3CCOCC3)ccc21`, the AC50 was > 26 µM (inactive).
Compound `C/C(=N/NC(=O)c1ccc(C(C)(C)C)cc1)c1ccccn1` has an AC50 of 3.38 µM.
With `COc1ccccc1N(C(C)=O)C1=C(Cl)C(=O)c2ccccc2C1=O` the AC50 was 11.7 µM.
With `CCN(CC)S(=O)(=O)c1cccc(NC(=O)Nc2cccc(C(F)(F)F)c2)c1` the AC50 was 19.1 µM.
Compound `c1ccc(-c2cccc(-c3ccccn3)n2)nc1` has an AC50 of 1.77 µM.
`COc1cccc(/C=N/Nc2nc3ccccc3[nH]2)c1O` showed an AC50 of 5.26 µM.
Compound `CCN(CC)c1ccc(/C=N/Nc2nc3ccccc3[nH]2)c(O)c1` has an AC50 of 4.51 µM.
Work on `CCOc1ccc(/C=C/[N+](=O)[O-])c2ccccc12` yielded an AC50 of 11.8 µM.
With `O=C(CF)N(O)c1ccc(C=Cc2ccccc2)cc1` the AC50 was > 26 µM (inactive).
Work on `COc1ccc(C(NC(C)=O)c2cc(Cl)c3cccnc3c2O)cc1` (stereo not drawn) yielded an AC50 of 4.88 µM.
`OC1(c2cccc(C(F)(F)F)c2)CCN(c2ncnc3c2[nH]c2ccc(F)cc23)CC1` showed an AC50 of 17.8 µM.
`COc1ccc2c(c1)/C(=C/c1cnc[nH]1)C(=O)N2` showed an AC50 of 23.1 µM.
With `COc1ccc(C(=O)Nn2c(SCC(=O)NC3CCCCC3)nc3ccccc3c2=O)cc1` the AC50 was > 26 µM (inactive).
`Oc1ccc(C=NNC(=S)Nc2ccccc2)nc1` gave an AC50 of 4.96 µM.
In the case of `O=C(O)c1cc(/C=C/c2ccc(N3CCOCC3)cc2)nc2ccccc12`, the AC50 is reported as > 26 µM (inactive).
`CC(=NNC(=S)N1CCCCC1)c1cccc(C)n1` was tested, and the AC50 was > 26 µM (inactive).
`c1ccn2cc(-c3ccc4c(c3)OCCO4)nc2c1` gave an AC50 of 16.1 µM.
Work on `O=C(c1ccccc1)C(CCC(CN1CCOCC1)C(=O)c1ccccc1)CN1CCOCC1` (stereo not drawn) yielded an AC50 of 2.57 µM.
With `O=C(N/N=C/c1c(O)ccc2ccccc12)c1ccc(Br)o1` the AC50 was 4.46 µM.
With `Cc1cc(=O)[nH]c(NN=Cc2cc(Br)ccc2O)n1` the AC50 was 3.36 µM.
For `Nc1ccc(C(=O)N/N=C\c2cc(N=Nc3cccc4ccccc34)ccc2O)cc1`, the AC50 was 26.5 µM.
`C(=N\Nc1nc2ccccc2[nH]1)/c1cccc2cccnc12` showed an AC50 of 3.24 µM.
`Cc1oc2c(c1C(=O)c1ccc(Cl)cc1)C(=O)C(=O)c1ccccc1-2` was tested, and the AC50 was 4.37 µM.
With `O=C(Nc1nc2ccc(F)cc2s1)C1=COCCO1` the AC50 was 18.7 µM.
In the case of `CCC(=O)NC(c1ccc(Cl)cc1Cl)c1ccc2cccnc2c1O` (stereo not drawn), the AC50 is reported as 8.21 µM.
Work on `CC(=O)OC1CCC2(C)C(CCC3C4CC=C(C(C)=O)C4(C)OC(=O)CC32)C1` (stereo not drawn) yielded an AC50 of 4.45 µM.
Compound `CSc1ccc2c(c1)C(N1CCN(C)CC1)Cc1ccccc1S2` (stereo not drawn) has an AC50 of 15.4 µM.
For `COc1ccccc1NC(=S)NN=C(C)c1ccccn1`, the AC50 was 0.403 µM.
With `Oc1cccc2ccc(Nc3ccccn3)nc12` the AC50 was 8.91 µM.
`CCCCC(=O)NC(c1ccc(N(CC)CC)cc1)c1ccc2cccnc2c1O` (stereo not drawn) was tested, and the AC50 was 1.54 µM.
With `CCOC(=O)c1cn2nc(N3CCCCC3)ccc2n1` the AC50 was > 26 µM (inactive).
`CN(Cc1cnc2nc(N)nc(N)c2n1)c1ccc(C(=O)N[C@@H](CCC(=O)O)C(=O)O)cc1` was tested, and the AC50 was 0.016 µM.
In the case of `CCOc1cccc(/C=N/Nc2ccc(S(=O)(=O)N(CC)CC)cn2)c1O`, the AC50 is reported as 1.69 µM.
`CCN(CC)c1ccc(/C=N/NC(=O)c2c(Cl)cnn2C)c(O)c1` was tested, and the AC50 was 2.81 µM.
`CC(=NNC(=S)Nc1ccc(C)cc1)c1ccccn1` was tested, and the AC50 was 0.624 µM.
Compound `O=C(N/N=C/c1ccc[nH]1)c1ccc(COc2cccc3cccnc23)cc1` has an AC50 of 3.99 µM.
`C#Cc1cc(N2CCN(C(=O)c3ccoc3)CC2)n2nc(-c3cccc(Cl)c3)cc2n1` was tested, and the AC50 was 5.11 µM.
For `CCCC(=O)NC(c1cccc([N+](=O)[O-])c1)c1ccc2cccnc2c1O` (stereo not drawn), the AC50 was 3.59 µM.
